The values below come from ChEMBL document CHEMBL5505986, “Design, synthesis and biological evaluation of thiazolyl-halogenated pyrroles or pyrazoles as novel antibacterial and antibiofilm agents” (Eur J Med Chem, 2024).

Values after ≈ are worked out from the molar mass of the structure shown. Active and inactive are the calls of the source. The rule behind the calls is not given here.

Data set [1] relates to Staphylococcus aureus. Nature of the data set: Antibacterial activity against vancomycin-intermediate resistant Staphylococcus aureus ATCC 700699/Mu50 assessed as reduction in bacterial growth incubated for 24 hrs by broth microdilution method. The data set is classed as functional.
Data set [2] concerns Streptococcus pyogenes. Nature of the data set: Antibacterial activity against Streptococcus pyogenes ATCC 12204 assessed as reduction in bacterial growth incubated for 24 hrs by broth microdilution method. The class given is functional. (Dilution methods test growth across graded concentrations, often in twofold steps.)
Data set [3] concerns Enterococcus faecium. Kind of data set: Antibacterial activity against clinical isolate Enterococcus faecium assessed as reduction in bacterial growth incubated for 24 hrs by broth microdilution method. The data set is classed as functional.
Data set [4] relates to Enterococcus faecium. Kind of data set: Antibacterial activity against Enterococcus faecium Efm-HS0649 assessed as reduction in bacterial growth incubated for 24 hrs by broth microdilution method. The data set is classed as functional.
Data set [5] has as its system Enterococcus faecium. Nature of the data set: Antibacterial activity against Enterococcus faecium Efm-HS06188 assessed as reduction in bacterial growth incubated for 24 hrs by broth microdilution method. The class given is functional.
The subject of data set [6] is Staphylococcus aureus. Nature of the data set: Antibiofilm activity against vancomycin-intermediate resistant Staphylococcus aureus ATCC 700699/Mu50 at sub-MIC doses measured after 24 hrs by crystal violet staining based analysis. The class given is functional.
Data set [7] has as its system Enterococcus faecium. Nature of the data set: Antibiofilm activity against Enterococcus faecium clinical isolate at sub-MIC doses measured after 24 hrs by crystal violet staining based analysis. The class given is functional.
In data set [8] the test system is Pseudomonas aeruginosa. Kind of data set: Antibiofilm activity against Pseudomonas aeruginosa ATCC 47085 at sub-MIC doses measured after 24 hrs by crystal violet staining based analysis. The class given is functional.
For data set [9], the system named is Pseudomonas aeruginosa. Nature of the data set: Antibacterial activity against Pseudomonas aeruginosa ATCC 47085 assessed as reduction in bacterial growth incubated for 24 hrs by broth microdilution method. The class given is functional.
For a further data set, the system named is Klebsiella pneumoniae. Kind of data set: Antibacterial activity against Klebsiella pneumoniae ATCC 13883 assessed as reduction in bacterial growth incubated for 24 hrs by broth microdilution method. The data set is classed as functional.
The next data set concerns Acinetobacter baumannii. Kind of data set: Antibacterial activity against Acinetobacter baumannii ATCC 19606 assessed as reduction in bacterial growth incubated for 24 hrs by broth microdilution method. The data set is classed as functional.
Data set [10] concerns Staphylococcus aureus. Nature of the data set: Antibacterial activity against community associated methicillin-resistant Staphylococcus aureus USA400 assessed as reduction in bacterial growth incubated for 24 hrs by broth microdilution method. The class given is functional.
Data set [11] concerns Staphylococcus aureus. Kind of data set: Antibacterial activity against community associated methicillin-resistant Staphylococcus aureus USA300 assessed as reduction in bacterial growth incubated for 24 hrs by broth microdilution method. The class given is functional.
The test system of data set [12] is Enterococcus faecium. Kind of data set: Antibacterial activity against glycopeptide-resistant Enterococcus faecium vanB type assessed as reduction in bacterial growth incubated for 24 hrs by broth microdilution method. The class given is functional.
The test system of a further data set is NCI-H1299. Kind of data set: Cytotoxicity against human NCI-H1299 cells measured after 72 hrs by SRB assay. The class given is functional, cell-based. Conditions: NCI-H1299, 72 h. On the technique in general: Sulforhodamine B stains cellular protein and so reports cell mass.
A further data set deals with NCI-H1975. Nature of the data set: Cytotoxicity against human NCI-H1975 cells measured after 72 hrs by SRB assay. Conditions: NCI-H1975, 72 h. The class given is functional, cell-based.
Data set [13] in a line: Metabolic stability in human liver microsomes assessed as metabolic bioavailability at 0.1 uM preincubated for 10 mins followed by NADPH addition and measured upto 60 mins by LC-MS/MS analysis. The class given is ADME, Microsome. Conditions: time < 70 min.
Data set [14] can be described thus: Metabolic stability in mouse liver microsomes assessed as metabolic bioavailability at 0.1 uM preincubated for 10 mins followed by NADPH addition and measured upto 60 mins by LC-MS/MS analysis. The class given is ADME, Microsome. The settings on record: time < 70 min. For orientation: Liver microsomes are a subcellular fraction often used to study metabolism.

A short description of data set [15]: Metabolic stability in rat liver microsomes assessed as metabolic bioavailability at 0.1 uM preincubated for 10 mins followed by NADPH addition and measured upto 60 mins by LC-MS/MS analysis. Conditions: time < 70 min. The class given is ADME, Microsome.
A short description of data set [16]: Metabolic stability in dog liver microsomes assessed as metabolic bioavailability at 0.1 uM preincubated for 10 mins followed by NADPH addition and measured upto 60 mins by LC-MS/MS analysis. The data set is classed as ADME, Canis lupus familiaris, Microsome. The settings on record: time < 70 min.
A short description of data set [17]: Metabolic stability in monkey liver microsomes assessed as metabolic bioavailability at 0.1 uM preincubated for 10 mins followed by NADPH addition and measured upto 60 mins by LC-MS/MS analysis. The data set is classed as ADME, Macaca mulatta, Microsome. Conditions: rhesus monkey, time < 70 min.
Data set [18] has as its system Staphylococcus aureus. Nature of the data set: Antibiofilm activity against vancomycin-intermediate resistant Staphylococcus aureus ATCC 700699/Mu50 at 1/8 time MIC measured after 24 hrs by crystal violet staining based analysis. The class given is functional, organism-based.
The subject of data set [19] is Pseudomonas aeruginosa. Kind of data set: Antibiofilm activity against Pseudomonas aeruginosa ATCC 47085 at 8 to 16 ug/ml measured after 24 hrs by crystal violet staining based analysis. The data set is classed as functional, organism-based. The settings on record: dose 8-16 µg/ml.
Data set [20] has as its system Streptococcus pyogenes. Kind of data set: Antibacterial activity against Streptococcus pyogenes infected in Galleria mellonella larvae infection model assessed as prolongation of median survival time at 1 mg/kg pre-infected with bacteria for 1 hr followed by compound addition measured every 12 hrs for 3 days (reference value: 24 hrs). The class given is functional. Conditions: time 3 day.

Data set [21] concerns Streptococcus pyogenes. Nature of the data set: Antibacterial activity against Streptococcus pyogenes infected in Galleria mellonella larvae infection model assessed as increase in number of surviving larvae at 1 mg/kg pre-infected with bacteria for 1 hr followed by compound addition measured every 12 hrs for 3 days. The settings on record: time 3.0 day. The class given is functional, organism-based.

The nature of data set [22]: Toxicity in Galleria mellonella larvae assessed as reduction in animal survival at 20 mg/kg. Conditions: in vivo, 80 h. The class given is organism-based.

What is called MIC is the lowest concentration that inhibits growth of the organism. Regarding `CN[C@H](CC(C)C)C(=O)N[C@H]1C(=O)N[C@@H](CC(N)=O)C(=O)N[C@H]2C(=O)N[C@H]3C(=O)N[C@H](C(=O)N[C@H](C(=O)O)c4cc(O)cc(O)c4-c4cc3ccc4O)[C@H](O)c3ccc(c(Cl)c3)Oc3cc2cc(c3O[C@@H]2O[C@H](CO)[C@@H](O)[C@H](O)[C@H]2O[C@H]2C[C@](C)(N)[C@H](O)[C@H](C)O2)Oc2ccc(cc2Cl)[C@H]1O` [VANCOMYCIN], the MIC was 8 µg/mL (≈ 5.52 µM) in the data set on Staphylococcus aureus [1]; 0.25 µg/mL (≈ 0.173 µM) in the data set on Streptococcus pyogenes [2]; 16 µg/mL (≈ 11 µM) in the data set on Enterococcus faecium [3]; above 256 µg/mL with Enterococcus faecium [4]; above 256 µg/mL in the data set on Enterococcus faecium [5]. Also, the outcome in the data set on Staphylococcus aureus [6], in the data set on Enterococcus faecium [7] and with Pseudomonas aeruginosa [8] was inactive.
Consider `Oc1c(Br)cc(C(F)(F)F)cc1-c1csc(-c2cc(Cl)c(Cl)[nH]2)n1`, for which the MIC is 1 µg/mL (≈ 2.18 µM) in the data set with Staphylococcus aureus [1], at most 0.125 µg/mL in the data set on Streptococcus pyogenes [2] and above 256 µg/mL in the data set on Enterococcus faecium [3].
For `Oc1c(Cl)cc(Cl)cc1-c1csc(-c2[nH]c(Br)c(Br)c2Br)n1`, the MIC in the data set on Staphylococcus aureus [1] was above 256 µg/mL; in the data set with Streptococcus pyogenes [2], 0.25 µg/mL (≈ 0.456 µM); in the data set with Enterococcus faecium [3], 0.5 µg/mL (≈ 0.913 µM); with Pseudomonas aeruginosa [9], above 256 µg/mL; in the data set with Klebsiella pneumoniae it was above 256 µg/mL; with Acinetobacter baumannii it was above 256 µg/mL.
For `Oc1c(F)cc(F)cc1-c1csc(-c2[nH]c(Br)c(Br)c2Br)n1`, the MIC in the data set on Staphylococcus aureus [1], in the data set on Streptococcus pyogenes [2] and in the data set on Enterococcus faecium [3] was above 256 µg/mL throughout.
Take `Oc1c(Br)cc(Br)cc1-c1csc(-c2cc(Br)c(Br)[nH]2)n1`: the MIC was above 256 µg/mL in the data set with Staphylococcus aureus [1], 2 µg/mL (≈ 3.58 µM) in the data set with Streptococcus pyogenes [2] and above 256 µg/mL in the data set with Enterococcus faecium [3].
Turning to `COc1ccc(O)c(-c2csc(-c3cc(Cl)c(Cl)[nH]3)n2)c1`, the MIC in the data set on Staphylococcus aureus [1], with Streptococcus pyogenes [2] and with Enterococcus faecium [3] was above 256 µg/mL throughout.
Regarding `Oc1c(Br)cc(Br)cc1-c1csc(-c2cc(Cl)c(Cl)[nH]2)n1`, the MIC in the data set with Staphylococcus aureus [1], with Streptococcus pyogenes [2] and in the data set with Enterococcus faecium [3] was above 256 µg/mL in each case.
As to `O=[N+]([O-])c1ccc(O)c(-c2csc(-c3cc(Cl)c(Cl)[nH]3)n2)c1`, the MIC in the data set with Staphylococcus aureus [1] was above 256 µg/mL; in the data set with Streptococcus pyogenes [2], 32 µg/mL (≈ 89.8 µM); with Enterococcus faecium [3], above 256 µg/mL.
`Oc1c(Cl)cc(Cl)cc1-c1csc(-c2cc(Cl)c(Cl)[nH]2)n1`: the MIC in the data set with Staphylococcus aureus [1], in the data set with Streptococcus pyogenes [2] and with Enterococcus faecium [3] was above 256 µg/mL throughout.
Take `O=[N+]([O-])c1cc(-c2nc(-c3cc(C(F)(F)F)cc(Br)c3O)cs2)[nH]n1`: the MIC is 8 µg/mL (≈ 18.4 µM) in the data set with Staphylococcus aureus [1], 4 µg/mL (≈ 9.19 µM) in the data set on Streptococcus pyogenes [2] and above 256 µg/mL with Enterococcus faecium [3].
The term IC50 denotes the concentration that gives 50% inhibition. Take `Oc1c(Br)cc(C(F)(F)F)cc1-c1csc(-c2[nH]c(Br)c(Br)c2Br)n1`: the MIC in the data set with Staphylococcus aureus [1] is 2 µg/mL (≈ 3.2 µM); in the data set with Streptococcus pyogenes [2] it was at most 0.125 µg/mL; in the data set on Enterococcus faecium [3], at most 0.125 µg/mL; in the data set on Pseudomonas aeruginosa [9] it was above 256 µg/mL; with Klebsiella pneumoniae, above 256 µg/mL; in the data set with Acinetobacter baumannii, above 256 µg/mL. Further, the MIC is 16 µg/mL (≈ 25.6 µM) in the data set on Staphylococcus aureus [10]; 16 µg/mL (≈ 25.6 µM) in the data set on Staphylococcus aureus [11]; at most 0.125 µg/mL with Enterococcus faecium [4]; at most 0.125 µg/mL in the data set with Enterococcus faecium [5]; 0.5 µg/mL (≈ 0.799 µM) in the data set on Enterococcus faecium [12]. Besides, the figures for the IC50 in the data set with NCI-H1299 and in the data set on NCI-H1975 were 8.25 µg/mL (≈ 13.2 µM) and 4.4 µg/mL (≈ 7.03 µM), respectively. For the same molecule, the Fh at 1 h, 0.1 µM turned out to be 2.26% in data set [13]; 43.3% in data set [14]; 65.7% in [15]; 18.4% in data set [16]; 36.9% in data set [17]. Further, the Activity in the data set on Staphylococcus aureus [6] is above 60%; in the data set on Enterococcus faecium [7] it was above 60%; with Pseudomonas aeruginosa [8], above 60%; in [22], “Non-Toxic”. Moreover, the result in the data set with Staphylococcus aureus [18], in the data set with Pseudomonas aeruginosa [19] and in the data set on Streptococcus pyogenes [21] was Active. The MST in the data set on Streptococcus pyogenes [20] amounted to 36 h.
For the molecule `Oc1ccc(C(F)(F)F)cc1-c1csc(-c2cc(Cl)c(Cl)[nH]2)n1`, the MIC in the data set on Staphylococcus aureus [1] is 4 µg/mL (≈ 10.5 µM); in the data set on Streptococcus pyogenes [2], 4 µg/mL (≈ 10.5 µM); in the data set on Enterococcus faecium [3] it was above 256 µg/mL.
